Reference: patent publication US11447522B2, “Potent soft anti-inflammatory corticosteroid compounds and uses thereof” (Bodor Laboratories, Inc., priority 2017, dated 2022)
Where two headings read alike, the source gives them in different places.

How the values were obtained:
[1] = test system: ovalbumin sensitized and challenged Brown Norway rats; test: Airway changes of ovalbumin sensitized and challenged Brown Norway rats, intratracheal administration; type: in vivo; settings: for AHR (airways hyperreactivity) ED50: relative response to maximal acetylcholine dose
[2] = test system: TNF α-production of LPS-stimulated blood cells; test: TNF-α production of lipopolysaccharide-stimulated human blood; type: cell-based
Description: (§1) The in vitro anti-inflammatory effect of ED and its analogs was assessed using LPS-induced TNF α-release under various conditions (diluted or undiluted whole human blood, preincubation with sera) to determine the intrinsic anti-inflammatory activity and systemic biological stability of the various compounds.
(§2) Commercially available human cytokine ELISA sets were used. TNF-α and GM-CSF sets were purchased from BD Pharmingen, San Diego, Calif., USA) and the IL-1β set was obtained from R&D Systems (Minneapolis, Minn., USA). ELISA was performed according to the manufacturer's protocol. Cell-free supernatants were tested in duplicate. Detection limits were 7.8 pg/ml for TNF-α, 4.7 pg/ml for GM-CSF, and 3.9 pg/ml for IL-1β. Results were expressed as the mean percentage of inhibition. IC50 values for test compounds were calculated by linear regression.
Peripheral blood from healthy donors was collected aseptically into sterile heparinized (Vacutainer™) tubes. Whole blood samples from each individual were parallel used both undiluted and after 5-fold dilution with RPMI-1640 medium in every experiment. Blood samples were distributed into 24-well plates and incubated with serial concentrations of the test compounds and 1 μg/ml lipopolysaccharide for 24 h at 37° C. in a CO2 thermostat. Controls were treated with lipopolysaccharide and the vehicle (PBS or 0.01% dimethyl sulfoxide in PBS). After incubation, cell-free supernatants were separated by centrifugation (1000 g for 10 minutes) and stored at −20° C. until determination of the amount of TNF-α. Test compounds were examined in blood samples from five different individuals. Two parallel cultures per treatments were run.

[3] = test system: TNF-α production of LPS-stimulated whole blood cells; test: Stability: inhibition of TNF-α production with or without preincubation of the compounds in human plasma/serum; type: cell-based; settings: for potency and softness compared with the corresponding compounds 11 and 15: see Table 1
Description: as §1, §2
Mononuclear cells from peripheral blood of healthy donors were isolated on Ficoll-gradient. One million cells in 0.9 ml of RPMI 1640 medium were distributed into 24-well plates and serial concentrations of the test compounds, made in fresh human serum either instantly or 18 h previously, were added (0.05 ml) together with the lipopolysaccharide (0.05 ml; 1 μg/ml final concentration). Preincubation of the compounds with serum was carried out at 37° C. Processing of the cultures was done as described above.

[4] = test system: mitogen-induced proliferation of PBMC; test: Proliferation of lectin-stimulated peripheral mononuclear cells; type: cell-based, human; settings: read-out: Prolif.**: Inhibition of mitogen-induced proliferation of PBMC
Description: Mononuclear cells from heparinized peripheral blood of healthy donors were isolated on suitable gradient (Optiprep solution, 1.077 g/ml). Serial dilutions of the test compounds (ranging from 2×10^−6 to 2×10^−8 M) were made in 100 μl of medium per well of sterile round-bottomed 96-well microtiter plate. Control wells contained culture medium only. 100 μl of cell suspension (10^6 cells/ml), containing concanavalin A (2 μg/ml) was added to each well. […] All cultures were done in triplicate. Microtiter plates were incubated for 72 h at 37° C., in 5% CO2 containing humidified atmosphere. For the last 18 h of incubation, [^3H]thymidine was added to the cells cultures, at 0.1 μCi/well final concentration. At the end of the incubation, cells were harvested to glass microfiber filter (Whatman G/F) and associated radioactivity was determined by liquid scintillation.

[5] = Stability in the presence of human plasma (HPLC/MS/MS); type: in vitro ADME; settings: 37° C.
Description: Etiprednol dicloacetate (BNP-166) was added to freshly prepared human plasma of healthy donors at a concentration of 5 ng/ml, and were incubated at 37° C. for different intervals. After incubation the amount of the original compound (ethyl-17α-dichloroacetoxy-11β-hydroxyandostra-1,4-diene-3-one-17β-carboxylate), and one of its main metabolite, M-OH (17α,11β-dihydroxyandostra-1,4-diene-3-one-17β-carboxylate) were determined using an HPLC/MS/MS method. In brief: Fluocinolone acetonide served as internal standard (20 ng/ml), samples were extracted with a liquid-liquid extraction on Extrelut® columns, and were separated on a Purospher STAR 30×2 mm (3 μm) reversed phase column at a flow rate of 0.3 ml/min, using a linear gradient with a mobile phase system containing acetonitrile, water and acetic acid. Determination were performed on a triple quadrupole mass spectrometer (Perkin-Elmer SCIEX API 2000) supplied with an electrospray interface operated in the positive ionization mode. The multiple ion monitoring, parent→daughter ion transitions of 485.2→265.2, 375.2→265.2 and 495.2→337.2 were used for the quantification of etiprednol dicloacetate, its M-OH metabolite and for the internal standard respectively. Results are expressed as peak areas normalized to the internal control. Stability of the selected ED analogs (10, 11, 13, 17, 21, 25) were determined as described above for ED (3).

[6] = intratracheal, 2 hours prior challenge
[7] = intratracheal, 2 hours prior challenge, minimal statistically significantly effective dose
[8] = diluted blood 1:5, read-out: TNFα* a: Inhibition of TNF α-production of LPS-stimulated blood cells
[9] = undiluted blood, read-out: TNFα* b: Inhibition of TNF α-production of LPS-stimulated blood cells
[10] = non-preincubated in human plasma, read-out: Stability*** c: Inhibition of TNF-α production of LPS-stimulated whole blood cells
[11] = preincubated overnight in human plasma, read-out: Stability*** d: Inhibition of TNF-α production of LPS-stimulated whole blood cells

| Structure (SMILES) | IC50 [2, 8] | IC50 [2, 9] | IC50 [3, 10] | IC50 [3, 11] | IC50 [4] | other results |
| --- | --- | --- | --- | --- | --- | --- |
| CCC(=O)O[C@]1(C(=O)SCF)[C@H](C)C[C@H]2[C@@H]3C[C@H](F)C4=CC(=O)C=C[C@]4(C)[C@@]3(F)[C@@H](O)C[C@@]21C [FLU, fluticasone propionate] |  |  |  |  |  | Edema formation ED50 [1, 6]: 2.8 µg/kg; Eosinophilia BALF ED50 [1, 6]: >100 µg/kg; Eosinophilia Peribronchial ED50 [1, 6]: 10.5 µg/kg; Eosinophilia Perivascular ED50 [1, 6]: 45.0 µg/kg; Mucus production ED50 [1, 6]: <1.0 µg/kg; Mucus production, second line (dose type not given) [1, 6]: 1.0 µg/kg; BALF protein ED50 ([1]; intratracheal, 2 hours prior challenge, broncho-alveolar lavage fluid): 11.2 µg/kg; AHR (airways hyperreactivity) MSED [1, 7]: 0.1 µg/kg; BALF protein MSED [1, 7]: 10.0 µg/kg; Edema formation MSED [1, 7]: 1.0 µg/kg; Eosinophilia BALF MSED [1, 7]: 10.0 µg/kg; Eosinophilia Peribronchial MSED [1, 7]: 1.0 µg/kg; Eosinophilia Perivascular MSED [1, 7]: 10.0 µg/kg; AHR (airways hyperreactivity) ED50 [1, 6]: 0.14 µg/kg |
| COC(=O)[C@@]1(OC(=O)C(Cl)Cl)[C@@H](C)C[C@H]2[C@@H]3CCC4=CC(=O)C=C[C@]4(C)[C@@]3(F)[C@@H](O)C[C@@]21C [Compound 10, Methyl 17α-dichloroacetoxy-9α-fluoro-16β-methyl-11β-hydroxy-3-oxoandrosta-1,4-diene-17β-carboxylate] | 4 ± 3 nM | 20 ± 10 nM | 1.7 nM | 10.2 nM | < 0.01 nM |  |
| C[C@H]1C[C@H]2[C@@H]3CCC4=CC(=O)C=C[C@]4(C)[C@@]3(F)[C@@H](O)C[C@]2(C)[C@@]1(OC(=O)C(Cl)Cl)C(=O)OCCl [Compound 12, Chloromethyl 17α-dichloroacetoxy-9α-fluoro-16β-methyl-11β-hydroxy-3-oxoandrosta-1,4-diene-17β-carboxylate] | 20 ± 8 nM | 35 ± 12 nM |  |  | 0.05 ± 0.12 nM |  |
| C[C@@H]1C[C@H]2[C@@H]3C[C@H](F)C4=CC(=O)C=C[C@]4(C)[C@@]3(F)[C@@H](O)C[C@]2(C)[C@@]1(OC(=O)C(Cl)Cl)C(=O)OCF [Compound 21, Fluoromethyl 17α-dichloroacetoxy-6α,9α-difluoro-11β-hydroxy-16α-methyl-3-oxoandrosta-1,4-diene-17β-carboxylate] | 1.4 nM | 4.5 nM | 1.4 nM | 25 nM | 9 nM | stability in the presence of human plasma [5]: particularly stable |
| CC1CC2C3CC(F)C4=CC(=O)C=CC4(C)C3(F)C(O)CC2(C)C1(OC(=O)C(Cl)Cl)C(=O)SCCl (stereo not drawn) [Compound 26, S-Chloromethyl 17α-dichloroacetoxy-6α,9α-difluoro-11β-hydroxy-16α-methyl-3-oxoandrosta-1,4-diene-17β-carbothioate] | 6 nM | 12 nM |  |  | 3 nM |  |
| C[C@@H]1C[C@H]2[C@@H]3C[C@H](F)C4=CC(=O)C=C[C@]4(C)[C@@]3(F)[C@@H](O)C[C@]2(C)[C@@]1(OC(=O)C(Cl)Cl)C(=O)OCCl [Compound 22, Chloromethyl 17α-dichloroacetoxy-6α,9α-difluoro-11β-hydroxy-16α-methyl-3-oxoandrosta-1,4-diene-17β-carboxylate] | 4 nM | 4 nM |  |  | 0.02 nM |  |
| CCOC(=O)[C@@]1(OC(=O)C(Cl)Cl)[C@@H](C)C[C@H]2[C@@H]3C[C@H](F)C4=CC(=O)C=C[C@]4(C)[C@@]3(F)[C@@H](O)C[C@@]21C [Compound 15, Ethyl 6α,9α-difluoro-17α-dichloroacetoxy-16β-methyl-11β-hydroxy-3-oxoandrosta-1,4-diene-17β-carboxylate] | 2 nM | 14 nM |  |  | < 0.01 nM |  |
| C[C@H]1C[C@H]2[C@@H]3C[C@H](F)C4=CC(=O)C=C[C@]4(C)[C@@]3(F)[C@@H](O)C[C@]2(C)[C@@]1(OC(=O)C(Cl)Cl)C(=O)OCCO [Compound 17, 2-Hydroxyethyl 6α,9α-difluoro-17α-dichloroacetoxy-16β-methyl-11β-hydroxy-3-oxoandrosta-1,4-diene-17β-carboxylate] | < 1 nM | 3.7 ± 2.6 nM | 1.9 nM | 19.2 nM | 0.13 ± 0.02 nM | stability in the presence of human plasma [5]: particularly stable; potency and softness compared with the corresponding compounds 11 and 15 [3]: more potent but softer |
| CCOC(=O)[C@@]1(OC(=O)C(Cl)Cl)[C@@H](C)C[C@H]2[C@@H]3CCC4=CC(=O)C=C[C@]4(C)[C@@]3(F)[C@@H](O)C[C@@]21C [Compound 11, Ethyl 17α-dichloroacetoxy-9α-fluoro-16β-methyl-11β-hydroxy-3-oxoandrosta-1,4-diene-17β-carboxylate] | 1.7 ± 2 nM | 7.1 ± 4 nM | 16 nM | 18 nM | 0.012 nM | overall in vivo activity compared with the parent steroid ([1]; Table 2 parameters): does not represent significant improvement over ED, except in mucus production; Edema formation ED50 [1, 6]: 93 µg/kg; Eosinophilia BALF ED50 [1, 6]: >100 µg/kg; Eosinophilia Peribronchial ED50 [1, 6]: 10.3 µg/kg; Mucus production ED50 [1, 6]: <1 µg/kg; Mucus production, second line (dose type not given) [1, 6]: <1 µg/kg; AHR (airways hyperreactivity) MSED [1, 7]: 20.0 µg/kg; Edema formation MSED [1, 7]: 0.5 µg/kg; Eosinophilia Peribronchial MSED [1, 7]: 12.0 µg/kg; AHR (airways hyperreactivity) ED50 [1, 6]: 19.4 µg/kg |
| C[C@H]1C[C@H]2[C@@H]3CCC4=CC(=O)C=C[C@]4(C)[C@@]3(F)[C@@H](O)C[C@]2(C)[C@@]1(OC(=O)C(Cl)Cl)C(=O)OCCO [Compound 13, 2-Hydroxyethyl 17α-dichloroacetoxy-9α-fluoro-16β-methyl-11β-hydroxy-3-oxoandrosta-1,4-diene-17β-carboxylate] | 4.6 ± 6 nM | 5.8 ± 5 nM | 4.5 nM | 53.5 nM |  | stability in the presence of human plasma [5]: particularly stable; potency and softness compared with the corresponding compounds 11 and 15 [3]: more potent but softer |
| C[C@H]1C[C@H]2[C@@H]3C[C@H](F)C4=CC(=O)C=C[C@]4(C)[C@@]3(F)[C@@H](O)C[C@]2(C)[C@@]1(OC(=O)C(Cl)Cl)C(=O)OCCl [Compound 16, Chloromethyl 6α,9α-difluoro-17α-dichloroacetoxy-16β-methyl-11β-hydroxy-3-oxoandrosta-1,4-diene-17β-carboxylate] | 0.4 nM | 5.1 ± 1.7 nM |  |  | 26 ± 26 nM |  |
| COC(=O)C1(OC(=O)C(Cl)Cl)C(C)CC2C3CC(F)C4=CC(=O)C=CC4(C)C3(F)C(O)CC21C (stereo not drawn) [Compound 14, Methyl 6α,9α-difluoro-17α-dichloroacetoxy-16β-methyl-11β-hydroxy-3-oxoandrosta-1,4-diene-17β-carboxylate] | 0.8 ± 0.6 nM | 1.7 ± 0.9 nM |  |  | < 0.01 nM |  |
